Source: US20180267043A1, “USE OF BIOMARKERS FOR PREDICTING CLINICAL SENSITIVITY TO CANCER TREATMENT” (CELGENE CORPORATION, priority 2014, published 2018)

Legend:
[1] = target: T1, FLAG-HA tagged CRBN (Homo sapiens, UniProt Q96SW2); assay: Anti-FLAG immunoprecipitation of FLAG-HA CRBN from 293 HEK lysate, mass spectrometry; format: binding; details: 1 μM, whole cell lysate of 293 HEK cells, vs DMSO
T1 construct: HA; expressed in transfected cells
Experimental: Whole cell lysate of 293 HEK cells stably expressing FLAG-HA tagged CRBN was treated with 1 μM Compound C or DMSO vehicle control. Proteins associated with FLAG-HA CRBN were immunoprecipitated with anti-FLAG affinity gel, separated on SDS-PAGE, silver-stained, and analyzed by mass spectrometry. […] Arrows point to the expected positions of DDB1, GSPT1, PABP1, and CRBN.

[2] = system: Molm13; assay: CellTiter-Glo cell viability assay, Molm13; format: cell-based, human; details: 48 hours
Experimental: The effect of overexpression of GSPT1 on the anti-proliferative effect of Compound C was determined in human histiocytic lymphoma cell line U937 and human leukemia cell line Molm13. Treatment compounds were titrated from 0.1 nM to 1 μM. Cell proliferation was measured by CellTiter-Glo cell viability assay at 48 hours after treatment.

[3] = system: Acute Myelogenous Leukemia (AML3) cell line; assay: CellTiter-Glo cell viability assay after GSPT1 knockdown, AML3; format: cell-based, human
Experimental: The effect of depletion of GSPT1 on the anti-proliferative effect of Compound C was determined in human Acute Myelogenous Leukemia (AML3) cell line. Cells were infected with lentiviral vectors expressing control shRNA, shGSPT1-1 or shGSPT1-3 for 7 days and then treated with DMSO, Compound C in a titration from 0.0001 μM to 1 μM. Two days after treatment, cell proliferation was measured by CellTiter-Glo cell viability assay.

[4] = target: T2, mouse CRBN isoform 2 (IKZF1/3, GSPT1/2 as substrates) (Mus musculus, UniProt Q8C7D2, I391V); assay: Substrate degradation in CRBN−/− cells expressing mouse CRBN isoform 2 or mutants; format: cell-based; details: mouse CRBN isoform 2 I391V; 10 μM lenalidomide or 1 μM Compound C
T2 construct: expressed in transfected cells; host or cells: CRBN-/- cells (elsewhere: 293FT, CRISPR)
T2 sequence (Q8C7D2 whole entry I391V, canonical isoform): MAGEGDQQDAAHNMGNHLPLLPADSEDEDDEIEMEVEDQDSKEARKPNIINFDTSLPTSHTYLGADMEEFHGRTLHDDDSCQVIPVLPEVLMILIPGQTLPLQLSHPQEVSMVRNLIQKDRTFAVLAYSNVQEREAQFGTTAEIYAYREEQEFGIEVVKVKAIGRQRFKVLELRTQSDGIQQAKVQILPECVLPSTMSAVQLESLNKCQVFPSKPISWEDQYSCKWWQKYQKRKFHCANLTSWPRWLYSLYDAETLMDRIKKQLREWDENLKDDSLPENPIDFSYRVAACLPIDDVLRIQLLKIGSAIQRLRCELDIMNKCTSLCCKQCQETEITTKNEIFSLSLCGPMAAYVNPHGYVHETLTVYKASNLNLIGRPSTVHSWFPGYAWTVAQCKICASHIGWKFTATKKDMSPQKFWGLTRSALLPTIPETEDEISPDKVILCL
Text: (§1) To test this hypothesis, specific mutations in the compound-binding domain of mouse CRBN isoform2 were generated, such as V380E and I391V. Wild type mouse CRBN isoform 2 or each mutant was introduced to CRBN−/− cells. […] Thus, in mouse CRBN isoform 2, V380E and I391V mutations are sufficient to trigger the degradation of IKZF1/3 and GSPT1/2, respectively.

[5] = target: T3, mouse CRBN isoform 2 (IKZF1/3, GSPT1/2 as substrates) (Mus musculus, UniProt Q8C7D2, V380E); assay: as above; format: cell-based; details: mouse CRBN isoform 2 V380E; 1 μM Compound C
T3 construct: expressed in transfected cells; host or cells: CRBN-/- cells (elsewhere: 293FT, CRISPR)
T3 sequence (Q8C7D2 whole entry V380E, canonical isoform): as the sequence (Q8C7D2 whole entry I391V, canonical isoform) above, with V380E, V391I counted along it
Text: as §1

[6] = system: GSPT1, BIP, ER stress or apoptosis pathways; assay: Expression level of ER stress and apoptosis components in 293FT HEK cells; format: cell-based, human; details: 20 hours
Experimental: CRBN+/+ and CRBN−/− cells were treated with DMSO alone, 1 nM, or 10 nM Compound C. After 20 hours, the expression level of various cellular components along the endoplasmic reticulum (ER) stress or apoptosis pathways was measured. […] BIP is an ER luminal KDEL protein that requires binding with KDEL receptor in the cis-Golgi to be retro-transported into the ER lumen for retention. Loss of GSPT1 leads to the inactivation of the eRF1/GSPT1 complex and therefore allows translation readthrough of de novo sysnthesized proteins such as BIP. Addition of extra residues to the BIP C-terminus blocks the recognization of KDEL motif and BIP C-terminal epitopes by the KDEL receptor and BIP C-terminal antibodies, respectively. […] BIP interacts with the ER luminal domain of UPR sensors PERK, IRE1, and ATF6 to prevent their activation. Reduction of BIP C-terminal immunoreactivity indicates a mislocalization of BIP, which presumably leads to its dissociation from PERK, IRE1, and ATF6 and induces UPR.

[7] = system: Human Acute Myeloblastic Leukemia Cell Line KG1; assay: Anti-proliferative effect after GSPT1 knockdown, KG1 (FIG. 12A); format: cell-based

T1 sequence (Q96SW2 whole entry): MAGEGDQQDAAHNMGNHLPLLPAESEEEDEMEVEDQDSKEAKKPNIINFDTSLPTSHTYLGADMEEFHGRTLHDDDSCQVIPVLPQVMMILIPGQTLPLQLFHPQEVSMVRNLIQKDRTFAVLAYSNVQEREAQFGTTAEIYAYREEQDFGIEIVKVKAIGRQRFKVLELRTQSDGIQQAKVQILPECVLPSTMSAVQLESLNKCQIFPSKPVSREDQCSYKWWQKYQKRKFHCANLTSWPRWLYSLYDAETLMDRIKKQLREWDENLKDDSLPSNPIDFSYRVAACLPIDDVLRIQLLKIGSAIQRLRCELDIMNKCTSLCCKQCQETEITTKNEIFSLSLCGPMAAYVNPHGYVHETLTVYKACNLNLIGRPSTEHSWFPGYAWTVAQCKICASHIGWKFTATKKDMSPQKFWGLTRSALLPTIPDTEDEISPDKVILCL

## Cc1ccc(NC(=O)NCc2ccc3c(c2)CN(C2CCC(=O)NC2=O)C3=O)cc1Cl (centres unmarked) [Compound C, 1-(3-chloro-4-methylphenyl)-3-((2-(2,6-dioxopiperidin-3-yl)-1-oxoisoindolin-5-yl)methyl)urea]
[1]
  Proteins associated with FLAG-HA CRBN identified as CAPs: PABP1, GSPT1/eRF3a, GSPT2/eRF3b, and HBS1L/eRF3c were identified as CAPs only when CRBN was bound with Compound C
[2]; Molm13, exogenous GSPT1 overproduced via EF1a promoter
  Anti-proliferative effect: the anti-proliferative effect of Compound C reduces
[2]; Molm13 CRBN −/− cells
  Anti-proliferative effect: completely abolished
[2]; Molm13 parental cells, 0.1 nM to 1 μM
  Cell proliferation: inhibits cell proliferation
[3]; AML3 (FIG. 12A)
  Anti-proliferative effect: exhibited anti-proliferative effect
[3]; AML3 expressing shGSPT1-1 or shGSPT1-3 vs parental or control shRNA, 0.0001 μM to 1 μM, two days
  Anti-proliferative effect: increased anti-proliferative effect
[4]
  Degradation of IKZF1/3: restores both lenalidomide- and Compound C-induced degradation of IKZF1/3
[5]
  Degradation of GSPT1/2: restores Compound C-induced degradation of GSPT1/2
[6]; 293FT CRBN+/+ cells, 1 nM or 10 nM
  Degradation of GSPT1: induces degradation of GSPT1 in CRBN+/+ cells
[6]; 293FT HEK cells
  Cellular components in acute apoptotic cell death: are not affected
[6]; 293FT, 1 nM or 10 nM
  Immunoreactivity of BIP antibody that binds to BIP amino-terminal region: is not affected
[6]; 293FT, 1 nM or 10 nM, dose dependent
  Immunoreactivity of KDEL antibody and BIP carboxyl-terminus (BIP-CT) antibody: dramatically decreased
[7]; KG1 (FIG. 12A)
  Anti-proliferative effect: exhibited anti-proliferative effect
[7]; KG1, GSPT1 downregulated by shGSPT1-1 or shGSPT1-3
  Anti-proliferative effect: the anti-proliferative effect increased
